In patent US10689367B2, “Triazole pyridyl compounds as agonists of the APJ receptor” (AMGEN INC., priority 2016, dated 2020):

These compounds were tested against human APJ receptor (Homo sapiens (Human), UniProt P35414) (assay: [35S]GTPγS binding assay on membranes from CHO cells stably expressing human APJ receptor). Details: membranes of CHO cells stably expressing human APJ receptor, read-out: Activity hAPJ SPA EC50 IP.
Type: biochemical
Outline: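 [35S]GTPγS binding measured on membranes from CHO cells stably expressing FLAG-tagged human APJ, with GDP, MgCl2 and NaCl levels optimized beforehand. Incubation 90 min at RT, imager read-out; EC50 from non-linear regression, averaged over several independent experiments.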

Sequence of human APJ receptor (P35414 whole entry): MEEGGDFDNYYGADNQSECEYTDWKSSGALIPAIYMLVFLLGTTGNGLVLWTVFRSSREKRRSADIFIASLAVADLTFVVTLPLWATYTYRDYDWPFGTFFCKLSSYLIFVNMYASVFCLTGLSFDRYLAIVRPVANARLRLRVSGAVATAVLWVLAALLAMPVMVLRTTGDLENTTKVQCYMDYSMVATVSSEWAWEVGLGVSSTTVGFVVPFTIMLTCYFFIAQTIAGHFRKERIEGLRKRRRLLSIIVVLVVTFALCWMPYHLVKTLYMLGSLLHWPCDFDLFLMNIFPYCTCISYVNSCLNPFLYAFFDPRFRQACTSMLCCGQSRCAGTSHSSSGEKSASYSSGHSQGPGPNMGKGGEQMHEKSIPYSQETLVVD

Row | Compound | EC50 [µM]
1 | COc1cccc(-c2nnc(NS(=O)(=O)[C@@H](C)[C@H](OC)c3ncc(Cl)cn3)n2Cc2ccno2)n1 [Example 266.0, (1R,2S)-1-(5-chloropyrimidin-2-yl)-N-(4-(isoxazol-5-ylmethyl)-5-(6-methoxypyridin-2-yl)-4H-1,2,4-triazol-3-yl)-1-methoxypropane-2-sulfonamide] | 0.0096
2 | COc1cccc(-c2nnc(NS(=O)(=O)[C@@H](C)[C@H](OC)c3ncc(Cl)cn3)n2Cc2cc(C)on2)n1 [Example 271.0, (1R,2S)-1-(5-chloropyrimidin-2-yl)-1-methoxy-N-(5-(6-methoxypyridin-2-yl)-4-((5-methylisoxazol-3-yl)methyl)-4H-1,2,4-triazol-3-yl)propane-2-sulfonamide] | 0.0054
3 | COc1cccc(-c2nnc(NS(=O)(=O)[C@@H](C)[C@H](C)c3ncc(Cl)cn3)n2Cc2cc(C)on2)n1 [Example 272.0, (2S,3R)-3-(5-chloropyrimidin-2-yl)-N-(5-(6-methoxypyridin-2-yl)-4-((5-methylisoxazol-3-yl)methyl)-4H-1,2,4-triazol-3-yl)butane-2-sulfonamide] | 0.012
4 | COc1cccc(-c2nnc(NS(=O)(=O)[C@@H](C)[C@H](OC)c3ncc(Cl)cn3)n2CCc2ccccn2)n1 [Example 283.0, (1R,2S)-1-(5-chloropyrimidin-2-yl)-1-methoxy-N-(5-(6-methoxypyridin-2-yl)-4-(2-(pyridin-2-yl)ethyl)-4H-1,2,4-triazol-3-yl)propane-2-sulfonamide] | 0.069
5 | COc1cccc(-c2nnc(NS(=O)(=O)[C@@H](C)[C@H](OC)c3ncc(Cl)cn3)n2CCc2cccnc2)n1 [Example 284.0, (1R,2S)-1-(5-chloropyrimidin-2-yl)-1-methoxy-N-(5-(6-methoxypyridin-2-yl)-4-(2-(pyridin-3-yl)ethyl)-4H-1,2,4-triazol-3-yl)propane-2-sulfonamide] | 0.12
6 | COc1cccc(-c2nnc(NS(=O)(=O)[C@@H](C)[C@H](C)c3ncc(C)cn3)n2Cc2ccon2)n1 [Example 291.0, (2S,3R)-N-(4-(isoxazol-3-ylmethyl)-5-(6-methoxypyridin-2-yl)-4H-1,2,4-triazol-3-yl)-3-(5-methylpyrimidin-2-yl)butane-2-sulfonamide] | 0.035
7 | CCc1cc(Cn2c(NS(=O)(=O)[C@@H](C)[C@H](OC)c3ncc(Cl)cn3)nnc2-c2cccc(OC)n2)on1 [Example 292.0, (1R,2S)-1-(5-Chloropyrimidin-2-yl)-N-(4-((3-ethylisoxazol-5-yl)methyl)-5-(6-methoxypyridin-2-yl)-4H-1,2,4-triazol-3-yl)-1-methoxypropane-2-sulfonamide] | 0.0024
8 | CCc1cc(Cn2c(NS(=O)(=O)[C@@H](C)[C@H](OC)c3ncc(Cl)cn3)nnc2-c2cncc(C)c2)on1 [Example 293.0, (1R,2S)-1-(5-chloropyrimidin-2-yl)-N-(4-((3-ethylisoxazol-5-yl)methyl)-5-(5-methylpyridin-3-yl)-4H-1,2,4-triazol-3-yl)-1-methoxypropane-2-sulfonamide] | 0.2
9 | CCc1cc(Cn2c(NS(=O)(=O)[C@@H](C)[C@@H](OC(C)C)c3ncc(C)cn3)nnc2-c2cccc(OC)n2)on1 [Example 294.0, (1S,2S)-N-(4-((3-ethylisoxazol-5-yl)methyl)-5-(6-methoxypyridin-2-yl)-4H-1,2,4-triazol-3-yl)-1-isopropoxy-1-(5-methylpyrimidin-2-yl)propane-2-sulfonamide] | 0.0054
10 | COc1cccc(-c2nnc(NS(=O)(=O)[C@@H](C)[C@H](OC)c3ncc(Cl)cn3)n2CC2CCOCC2)n1 [Example 302.0, (1R,2S)-1-(5-chloropyrimidin-2-yl)-1-methoxy-N-(5-(6-methoxypyridin-2-yl)-4-((tetrahydro-2H-pyran-4-yl)methyl)-4H-1,2,4-triazol-3-yl)propane-2-sulfonamide] | 0.053
11 | (1R,2S)-1-(5-Chloropyrimidin-2-yl)-1-methoxy-N-(4-((1R,2R)-2-methoxycyclobutyl)-5-(6-methoxypyridin-2-yl)-4H-1,2,4-triazol-3-yl)propane-2-sulfonamide and (1R,2S)-1-(5-chloropyrimidin-2-yl)-1-methoxy-N-(4-((1S,2S)-2-methoxycyclobutyl)-5-(6-methoxypyridin-2-yl)-4H-1,2,4-triazol-3-yl)propane-2-sulfonamide [Example 155.0] | 0.0031
12 | (1R,2S)-1-(5-chloropyrimidin-2-yl)-1-methoxy-N-(5-(6-methoxypyridin-2-yl)-4-(((S)-oxetan-2-yl)methyl)-4H-1,2,4-triazol-3-yl)propane-2-sulfonamide or (1R,2S)-1-(5-chloropyrimidin-2-yl)-1-methoxy-N-(5-(6-methoxypyridin-2-yl)-4-(((R)-oxetan-2-yl)methyl)-4H-1,2,4-triazol-3-yl)propane-2-sulfonamide [Example 140.0] | 0.042
13 | (1R,2S)-1-(5-chloropyrimidin-2-yl)-1-methoxy-N-(5-(6-methoxypyridin-2-yl)-4-(((S)-oxetan-2-yl)methyl)-4H-1,2,4-triazol-3-yl)propane-2-sulfonamide or (1R,2S)-1-(5-chloropyrimidin-2-yl)-1-methoxy-N-(5-(6-methoxypyridin-2-yl)-4-(((R)-oxetan-2-yl)methyl)-4H-1,2,4-triazol-3-yl)propane-2-sulfonamide [Example 141.0] | 0.016

The compounds below were run on heart failure rats (assay: Cardiac function in heart failure rats in vivo with ACE inhibitor captopril, with or without APJ agonist). Details: captopril alone, acute settings.
Design: species or system rat
From the text: The interaction between […] (ACE2) and Apelin biology is complicated. To investigate the interaction between the Apelin-APJ and ACE signalling pathways, we examined the improvement in cardiac function with APJ small molecule agonists in the presence of ACE inhibitor captopril in heart failure rats in vivo. […] However, in the presence of an APJ agonist, there was a shift in potency to the left with marked improvement in contractility and ejection fraction without changes in heart rate. These findings provide a new reference for the understanding of the regulation of ACE2 for the renin angiotensin aldosterone system (RAAS), independent of AT1R signaling and offer new potential drug targets for the treatment of diseases such as hypertension and heart failure. This work clearly establishes that combination of an agonist of the APJ receptor with an ARB such as losartan and/or with an ACE inhibitor such as captopril which may play an important role in providing greater efficacy in treating heart failure patients, for example in improving contractility and ejection fraction without changing the heart rate.

Row | Compound | improvement in contractility or ejection fraction
14 | C[C@H](CS)C(=O)N1CCC[C@H]1C(=O)O [Captopril, captopril] | does not show a marked improvement in contractility or ejection fraction
